Data from patent US10828316B2, “Method of treating bacterial infections” (priority 2016, dated 2020).
Values after ≈ are worked out from the molar mass of the structure shown. Where two headings read alike, the source gives them in different places.

Tests used:
S. aureus strain no 13 = test: MIC; settings: Staphylococcus aureus, NO13, read-out: MIC of AZT
K. pneumoniae EN011 = test: MIC; assay type: cell-based, Klebsiella pneumoniae; settings: Klebsiella pneumoniae, EN011, K. pneumoniae EN011; Combination 1 (AZT+trimethoprim+uridine)
E. coli ATCC 25922 = test: MIC, in vitro sensitivity of the strain used in vivo; settings: Escherichia coli, ATCC25922, read-out: MIC against E. coli ATCC 25922
A. baumannii EN0007 = test: MIC; assay type: cell-based, A. baumanii; settings: in AZT+trimethoprim+uridine combination
[1] = system: P. aeruginosa strain no 10; test: MIC; assay type: cell-based, Pseudomonas aeruginosa; settings: for MIC of AZT: P. aeruginosa strain no 10
E. coli strain no 5 = test: MIC; assay type: cell-based; settings: Escherichia coli, NO5, read-out: MIC of AZT
A. baumannii strain no 3 = test: MIC; assay type: cell-based, Acinetobacter baumannii; settings: for MIC of AZT: A. baumannii strain no 3
E. coli strain no 2 = test: MIC; settings: Escherichia coli
P. aeruginosa EN0004 = test: MIC; assay type: cell-based; settings: in AZT+trimethoprim+uridine combination
E. coli EN013 = test: MIC; assay type: cell-based, Escherichia coli; settings: Escherichia coli, EN013, E. coli EN013

Cc1cn([C@H]2C[C@H](N=[N+]=[N-])[C@@H](CO)O2)c(=O)[nH]c1=O [AZT, 3′-azido-3′-deoxythymidine]
MIC (S. aureus strain no 13): > 150 µg/mL
MIC (K. pneumoniae EN011): 0.032 µg/mL
MIC (E. coli ATCC 25922): > 2 µg/mL
MIC (A. baumannii EN0007): >4 µg/mL
MIC of AZT ([1]; uridine 10 μg/ml): >150 µg/mL
MIC of AZT ([1]; uridine 50 μg/ml): >150 µg/mL
MIC of AZT ([1]; uridine 100 μg/ml): >150 µg/mL
MIC of AZT ([1]; uridine 200 μg/ml): >150 µg/mL
MIC ([1]; Pseudomonas aeruginosa, NO10, read-out: MIC of AZT): > 150 µg/mL
MIC (E. coli strain no 5): 4 to 8 µg/mL
MIC of AZT (A. baumannii strain no 3; uridine 10 μg/ml): >150 µg/mL
MIC of AZT (A. baumannii strain no 3; uridine 50 μg/ml): >150 µg/mL
MIC of AZT (A. baumannii strain no 3; uridine 100 μg/ml): >150 µg/mL
MIC of AZT (A. baumannii strain no 3; uridine 200 μg/ml): >150 µg/mL
MIC (A. baumannii strain no 3; Acinetobacter baumannii, NO3, read-out: MIC of AZT): > 150 µg/mL
log diff peritoneum vs start of treatment (E. coli; AZT 30 mg/kg): 0.38
mean log peritoneum (E. coli; AZT 30 mg/kg): 5.68
score at sampling (E. coli; AZT 30 mg/kg, single mice): 1
inhibition in mice infected with E. coli (E. coli; murine peritonitis model): slight inhibition
MIC (E. coli strain no 2; NO2, E. coli strain 2, 5 uM thymidine, uridine 0 μg/ml): > 30 µg/mL
MIC (E. coli strain no 2; NO2, E. coli strain 2, 5 uM thymidine, uridine 10 μg/ml): 25 to 30 µg/mL (≈ 93.5 to 112 µM)
MIC (E. coli strain no 2; NO2, E. coli strain 2, 5 uM thymidine, uridine 100 μg/ml): 10 to 20 µg/mL (≈ 37.4 to 74.8 µM)
MIC (E. coli strain no 2; NO2, read-out: MIC AZT, E. coli strain 2, thymidine 0 μM, uridine 0): 20 to 30 µg/mL (≈ 74.8 to 112 µM)
MIC (E. coli strain no 2; NO2, read-out: MIC AZT, E. coli strain 2, thymidine 0 μM, uridine 100 μg/ml): 5 to 10 µg/mL (≈ 18.7 to 37.4 µM)
MIC (E. coli strain no 2; NO2, read-out: MIC AZT, E. coli strain 2, thymidine 10 μM, uridine 0): > 30 µg/mL
MIC (E. coli strain no 2; NO2, read-out: MIC AZT, E. coli strain 2, thymidine 10 μM, uridine 100 μg/ml): > 30 µg/mL
MIC (E. coli strain no 2; NO2, read-out: MIC AZT, E. coli strain 2, thymidine 10 μM, uridine 100 and trimethoprim 1 μg/ml): 0.1 to 0.5 µg/mL (≈ 0.374 to 1.87 µM)
MIC (E. coli strain no 2; NO2, read-out: MIC AZT, E. coli strain 2, thymidine 30 μM, uridine 0): > 30 µg/mL
MIC (E. coli strain no 2; NO2, read-out: MIC AZT, E. coli strain 2, thymidine 30 μM, uridine 100 μg/ml): > 30 µg/mL
MIC (E. coli strain no 2; NO2, read-out: MIC of AZT, E. coli strain no 2, trimethoprim 0.5 μg/ml, uridine 0 μg/ml): 0.012 to 0.025 µg/mL
MIC (E. coli strain no 2; NO2, read-out: MIC of AZT, E. coli strain no 2, trimethoprim 0.5 μg/ml, uridine 1 μg/ml): ≤ 0.006 µg/mL
MIC (E. coli strain no 2; NO2, read-out: MIC of AZT, E. coli strain no 2, trimethoprim 0.5 μg/ml, uridine 10 μg/ml): 0.05 to 0.1 µg/mL
MIC (E. coli strain no 2; NO2, read-out: MIC of AZT, E. coli strain no 2, trimethoprim 0.5 μg/ml, uridine 100 μg/ml): 0.025 to 0.05 µg/mL
MIC (E. coli strain no 2; NO2, read-out: MIC of AZT, E. coli strain no 2, trimethoprim 0.5 μg/ml, uridine 200 μg/ml): 0.012 to 0.025 µg/mL
MIC (E. coli strain no 2; NO2, read-out: MIC of AZT, E. coli strain no 2, trimethoprim 1 μg/ml, uridine 0 μg/ml): 0.012 to 0.025 µg/mL
MIC (E. coli strain no 2; NO2, read-out: MIC of AZT, E. coli strain no 2, trimethoprim 1 μg/ml, uridine 1 μg/ml): ≤ 0.006 µg/mL
MIC (E. coli strain no 2; NO2, read-out: MIC of AZT, E. coli strain no 2, trimethoprim 1 μg/ml, uridine 10 μg/ml): ≤ 0.006 µg/mL
MIC (E. coli strain no 2; NO2, read-out: MIC of AZT, E. coli strain no 2, trimethoprim 1 μg/ml, uridine 100 μg/ml): 0.025 to 0.05 µg/mL
MIC (E. coli strain no 2; NO2, read-out: MIC of AZT, E. coli strain no 2, trimethoprim 1 μg/ml, uridine 200 μg/ml): 0.012 to 0.025 µg/mL
MIC (E. coli strain no 2; NO2, read-out: MIC of AZT, E. coli strain no 2, trimethoprim 2 μg/ml, uridine 0 μg/ml): 0.006 to 0.012 µg/mL
MIC (E. coli strain no 2; NO2, read-out: MIC of AZT, E. coli strain no 2, trimethoprim 2 μg/ml, uridine 1 μg/ml): ≤ 0.006 µg/mL
MIC (E. coli strain no 2; NO2, read-out: MIC of AZT, E. coli strain no 2, trimethoprim 2 μg/ml, uridine 10 μg/ml): ≤ 0.006 µg/mL
MIC (E. coli strain no 2; NO2, read-out: MIC of AZT, E. coli strain no 2, trimethoprim 2 μg/ml, uridine 100 μg/ml): 0.012 to 0.025 µg/mL
MIC (E. coli strain no 2; NO2, read-out: MIC of AZT, E. coli strain no 2, trimethoprim 2 μg/ml, uridine 200 μg/ml): 0.006 to 0.012 µg/mL
MIC (E. coli strain no 2; NO2, read-out: MIC of AZT, E. coli strain no 2, uridine 0 μg/ml): 20 to 25 µg/mL
MIC (E. coli strain no 2; NO2, read-out: MIC of AZT, E. coli strain no 2, uridine 10 μg/ml): 20 to 25 µg/mL
MIC (E. coli strain no 2; NO2, read-out: MIC of AZT, E. coli strain no 2, uridine 50 μg/ml): 15 to 20 µg/mL
MIC (E. coli strain no 2; NO2, read-out: MIC of AZT, E. coli strain no 2, uridine 100 μg/ml): 5 to 15 µg/mL
MIC (E. coli strain no 2; NO2, read-out: MIC of AZT, E. coli strain no 2, uridine 200 μg/ml): 5 to 15 µg/mL
MIC (E. coli strain no 2; NO2, read-out: MIC of AZT, Table 3, E. coli strain no 2, trimethoprim 0, uridine 0 μg/ml): 20 to 25 µg/mL
MIC (E. coli strain no 2; NO2, read-out: MIC of AZT, Table 3, E. coli strain no 2, trimethoprim 0, uridine 1 μg/ml): 10 to 20 µg/mL
MIC (E. coli strain no 2; NO2, read-out: MIC of AZT, Table 3, E. coli strain no 2, trimethoprim 0, uridine 10 μg/ml): 10 to 20 µg/mL
MIC (E. coli strain no 2; NO2, read-out: MIC of AZT, Table 3, E. coli strain no 2, trimethoprim 0, uridine 100 μg/ml): 2 to 10 µg/mL
MIC (E. coli strain no 2; NO2, read-out: MIC of AZT, Table 3, E. coli strain no 2, trimethoprim 0, uridine 200 μg/ml): 2 to 10 µg/mL
MIC (P. aeruginosa EN0004): >4 µg/mL
MIC (E. coli EN013; Combination 1 (AZT+trimethoprim+uridine)): < 0.008 µg/mL
MIC (E. coli EN013; Combination 2 (same mixed with thymidine)): < 0.008 µg/mL
MIC (E. coli EN013; in AZT+trimethoprim+uridine combination): < 0.008 µg/mL
